Laboratory results taken from PMC12240781 (Frontiers in Pharmacology, 2025).

Columns and labels:
in vitro = settings: for Papp at 6 h, 25 μg/mL: PAMPA; for Increase in Papp: with probiotic bacteria vs control without probiotics
Description: Hydrophobic MultiScreen PVDF microfiltration plates with 96 wells and a pore diameter of 0.45 μm (Millipore, USA) were used as acceptor plates and as supports for the artificial membrane. Each well of the acceptor plate was impregnated with 6 μL of a 2% lecithin solution in n-dodecane, and after solvent evaporation, an artificial membrane was formed. To the corresponding wells of the acceptor plate, 200 μL of PBS buffer (pH 7.4) was added, while 300 μL of the tested compound solution in respective buffer was added to the wells of the donor plate (MultiScreen Transport Receiver Plate, Millipore, USA). All analyses were conducted in triplicate at three different pH values in the donor compartment, while the pH value in the acceptor compartment was always 7.4. The donor plate was aligned with the acceptor plate to initiate incubation. Incubation of samples was performed at 37°C in a sealed PAMPA system to minimize oxygen exposure. […] Before HPLC injection, protein precipitation was achieved by diluting a 50 μL sample from the donor compartment fivefold with acetonitrile, followed by centrifugation at 15,000 rpm for 10 min at +4°C, as described by Đanić et al. ([Ðanić et al., 2019]). Subsequently, 100 μL of the supernatant was directly injected into the HPLC system.
After determining the concentrations of the tested compounds in the donor and acceptor wells, apparent permeability coefficients (Papp) were calculated and expressed in units of cm/s based on the equation: Papp=C×−ln 1−Ca/Ceq where C is a correction factor calculated as: C=Vd×Va/Vd+Va×S×t
The equilibrium drug concentration (Ceq) was determined using mass balance: Ceq=Cd×Vd+Ca×Va/Vd+Va
In these equations, Ca represents the drug concentration in the acceptor compartment after 6 h, Ceq is the equilibrium drug concentration determined based on mass balance, Va and Vd denote the volumes of the acceptor and donor compartments, respectively, measured in milliliters, t represents the time period over which permeability was assessed, expressed in seconds, and S refers to the membrane surface area in square centimeters. The surface area of the artificial membrane was calculated to be 0.24 cm^2, as the acceptor filter membrane plates have a surface area of 0.32 cm^2 and a porosity of 75%, according to the manufacturer’s data.
Sample analysis was performed using high-performance liquid chromatography (HPLC; Dionex) with a diode array detector (DAD). […] Briefly, the chromatographic analysis was performed using a reverse-phase Zorbax Eclipse Plus C18 column (150 mm × 2.1 mm, 5 μm; Agilent Technologies, USA), coupled with a Zorbax Extend C18 guard column (12.5 mm × 2.1 mm, 5 μm; Agilent Technologies, USA). During the analysis, the column temperature was maintained at a constant 25°C, and the injection volume was 20 μL. Elution was performed using an isocratic program, with the mobile phase consisting of 50% AcN and 50% phosphate buffer adjusted to pH 3.3 with orthophosphoric acid, with the addition of 0.5 mL triethylamine as a column modifier. The total analysis time was 5 min, with a constant flow rate of the mobile phase at 0.3 mL/min. […] The eluate was monitored using a UV/DAD detector at a wavelength of 276 nm.

[1] = pH 5.8, Henderson-Hasselbalch equation
[2] = cited from earlier work

Cn1cnc([N+](=O)[O-])c1Sc1ncnc2nc[nH]c12 [azathioprine]
Papp at 6 h, 25 μg/mL (in vitro; Permeability [Papp x10^−7] [cm/s]): 0.193 ± 0.014 ×10⁻⁶ cm/s | Papp at 6 h, 25 μg/mL (in vitro; Permeability class across the PAMPA membrane): < 1 ×10⁻⁶ cm/s | Papp at 6 h, 25 μg/mL (in vitro; pH 7.4, Permeability [Papp x10^−7] [cm/s]): 0.134 ± 0.005 ×10⁻⁶ cm/s | Rise of azathioprine levels in the acceptor compartment (in vitro; incubated with probiotics, 6 h): less than 1% | Increase in Papp (in vitro; pH 5.8): 2.2 fold | Increase in Papp (in vitro; pH 6.5): 1.9 fold | Increase in Papp (in vitro; pH 7.4): 2.5 fold | Increase of azathioprine concentration in the acceptor compartment (in vitro; with probiotics vs control without probiotics (AP vs. A), pH 5.8, 6 h): 18% | Increase of azathioprine concentration in the acceptor compartment (in vitro; with probiotics vs control without probiotics (AP vs. A), pH 7.4, 6 h): 57% | Increase of azathioprine concentration in the acceptor compartment (in vitro; with probiotics vs control without probiotics, pH 6.5, 6 h): 26% | Ionization percentage [1]: 0.84% | Biopharmaceutics Classification System (BCS) class ([2]; low solubility and low permeability, ref Bocci et al., 2022): Class IV | logP ([2]; ref Hansch et al., 1996): 0.1
